Measurements as given in patent US20240158370A1, “CK1 alpha AND DUAL CK1 alpha / GSPT1 DEGRADING COMPOUNDS” (Innovo Therapeutics, Inc., priority 2022, published 2024).

Experiments:
CK1α = biological target: T1, CK1α (Homo sapiens, UniProt P48729+Q96SW2); experiment: HiBiT degradation assay, CK1α, Procedure A; assay type: cell-based; conditions: six hours
T1 construct: CSNK1A1-HiBit KI HEK293(LgBit) Cells; host or cells: HEK293(LgBit) knock-in cells
Method in brief: (§1)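 Luminescence from HiBiT lytic detection, read after 20 min shaking, gave DC50 and Ymin by 4-parameter fit. Before that, cells (1×10^6 cells/ml, DMEM+10% FBS) sat 6 h at 37° C on 10-point compound series (10 μM–0.005 μM, 0.1% DMSO).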

GSPT1 = GSPT1 (Homo sapiens, UniProt P15170+Q96SW2); experiment: HiBiT degradation assay, GSPT1, Procedure A; assay type: cell-based; parameters: HiBit-GSPT1 KI HEK293(LgBit) Cells; host or cells: HEK293(LgBit) knock-in cells; conditions: six hours
GSPT1, sequence (P15170 whole entry): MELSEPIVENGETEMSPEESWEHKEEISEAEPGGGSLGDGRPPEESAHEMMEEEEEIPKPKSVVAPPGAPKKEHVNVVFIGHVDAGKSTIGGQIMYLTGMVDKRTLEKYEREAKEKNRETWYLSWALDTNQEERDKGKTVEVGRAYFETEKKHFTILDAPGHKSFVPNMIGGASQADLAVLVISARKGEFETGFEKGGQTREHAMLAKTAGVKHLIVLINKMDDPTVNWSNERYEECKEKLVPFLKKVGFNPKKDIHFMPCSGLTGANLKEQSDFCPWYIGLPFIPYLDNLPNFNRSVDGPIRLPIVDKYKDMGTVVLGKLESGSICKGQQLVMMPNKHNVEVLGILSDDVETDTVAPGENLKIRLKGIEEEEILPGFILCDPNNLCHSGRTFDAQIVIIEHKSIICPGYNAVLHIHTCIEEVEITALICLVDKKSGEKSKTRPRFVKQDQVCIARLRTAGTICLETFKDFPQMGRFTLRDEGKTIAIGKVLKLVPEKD
GSPT1, sequence (Q96SW2 whole entry): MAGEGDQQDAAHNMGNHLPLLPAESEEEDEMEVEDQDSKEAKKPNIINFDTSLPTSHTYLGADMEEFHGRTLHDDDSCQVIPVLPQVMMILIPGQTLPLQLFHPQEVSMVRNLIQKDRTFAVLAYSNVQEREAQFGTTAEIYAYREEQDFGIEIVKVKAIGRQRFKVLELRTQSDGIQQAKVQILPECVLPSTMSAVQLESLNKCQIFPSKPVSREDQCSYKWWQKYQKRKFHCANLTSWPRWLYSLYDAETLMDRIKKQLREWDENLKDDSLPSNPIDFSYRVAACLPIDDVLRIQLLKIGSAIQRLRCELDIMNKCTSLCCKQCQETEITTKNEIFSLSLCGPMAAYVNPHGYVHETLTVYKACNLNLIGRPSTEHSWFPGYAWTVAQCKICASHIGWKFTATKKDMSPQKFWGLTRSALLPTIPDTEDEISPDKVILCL
GSPT1, sequence (Q16531 whole entry partner): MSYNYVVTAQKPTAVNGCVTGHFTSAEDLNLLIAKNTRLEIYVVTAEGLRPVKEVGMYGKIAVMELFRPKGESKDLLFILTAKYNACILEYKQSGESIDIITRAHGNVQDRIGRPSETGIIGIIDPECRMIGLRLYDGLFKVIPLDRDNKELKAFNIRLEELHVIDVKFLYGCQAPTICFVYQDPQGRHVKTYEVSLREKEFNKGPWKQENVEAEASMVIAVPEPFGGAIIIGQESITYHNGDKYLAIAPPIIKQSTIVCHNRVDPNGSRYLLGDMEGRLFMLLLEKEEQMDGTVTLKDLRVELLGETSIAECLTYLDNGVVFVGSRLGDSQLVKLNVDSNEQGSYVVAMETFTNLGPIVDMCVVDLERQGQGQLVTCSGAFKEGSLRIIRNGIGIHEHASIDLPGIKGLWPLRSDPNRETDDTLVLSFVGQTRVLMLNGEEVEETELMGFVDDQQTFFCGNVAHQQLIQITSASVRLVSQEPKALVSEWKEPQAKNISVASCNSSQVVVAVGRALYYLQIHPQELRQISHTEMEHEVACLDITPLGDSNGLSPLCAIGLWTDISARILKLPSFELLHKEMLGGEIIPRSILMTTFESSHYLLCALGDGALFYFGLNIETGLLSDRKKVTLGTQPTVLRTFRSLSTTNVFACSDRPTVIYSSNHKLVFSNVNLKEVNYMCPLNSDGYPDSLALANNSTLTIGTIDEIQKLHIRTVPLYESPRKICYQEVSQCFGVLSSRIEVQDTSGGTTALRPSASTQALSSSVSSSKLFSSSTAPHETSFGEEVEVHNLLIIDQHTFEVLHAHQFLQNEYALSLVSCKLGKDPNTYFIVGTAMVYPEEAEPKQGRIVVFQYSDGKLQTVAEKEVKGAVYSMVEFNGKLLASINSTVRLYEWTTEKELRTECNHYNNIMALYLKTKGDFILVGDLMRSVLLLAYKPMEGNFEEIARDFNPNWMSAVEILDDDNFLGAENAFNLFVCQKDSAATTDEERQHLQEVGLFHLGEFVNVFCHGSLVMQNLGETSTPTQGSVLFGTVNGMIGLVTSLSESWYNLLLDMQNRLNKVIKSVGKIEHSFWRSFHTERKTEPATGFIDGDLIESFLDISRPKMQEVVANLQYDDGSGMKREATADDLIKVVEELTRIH
Method in brief: as §1

T1 sequence (P48729 whole entry): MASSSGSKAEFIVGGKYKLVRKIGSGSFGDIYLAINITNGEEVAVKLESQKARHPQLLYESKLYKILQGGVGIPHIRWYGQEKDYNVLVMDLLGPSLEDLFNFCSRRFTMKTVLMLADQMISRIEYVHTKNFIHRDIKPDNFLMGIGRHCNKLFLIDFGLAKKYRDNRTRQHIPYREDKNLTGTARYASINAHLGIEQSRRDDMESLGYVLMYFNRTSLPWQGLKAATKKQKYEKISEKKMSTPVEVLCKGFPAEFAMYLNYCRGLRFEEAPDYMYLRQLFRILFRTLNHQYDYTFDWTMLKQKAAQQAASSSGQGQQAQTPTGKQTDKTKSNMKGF
T1 sequence (Q96SW2 whole entry): as the sequence (Q96SW2 whole entry) above
T1 sequence (Q16531 whole entry partner): as the sequence (Q16531 whole entry partner) above

Row | SMILES | CK1α Ymin (CK1α) | DC50 (CK1α) | DC50 (GSPT1) | GSPT1 Ymin (GSPT1)
1 | Cn1cnc(-c2ccc3c(c2)CN(C2CCC(=O)NC2=O)C3=O)c1-c1ccc(S(=O)(=O)NC2CCCCC2)cc1 (stereo not shown) [Example 448] | D (D = >10- 25% remaining) | ≥ 25 nM | ≥ 25 nM | F (F = >75-100% remaining)
2 | CN1CCN(S(=O)(=O)c2ccc(-c3c(-c4ccc5c(c4)CN(C4CCC(=O)NC4=O)C5=O)ncn3C)cc2)CC1 (stereo not shown) [Example 449] | E (E = >25-75% remaining) | ≥ 25 nM | ≥ 25 nM | F (F = >75-100% remaining)
3 | Cn1ncc(-c2ccc3c(c2)CN(C2CCC(=O)NC2=O)C3=O)c1-c1ccnnc1 (stereo not shown) [Example 450] | F (F = >75-100% remaining) | ≥ 25 nM | ≥ 25 nM | F (F = >75-100% remaining)
4 | Cn1nccc1-c1c(-c2ccc3c(c2)CN(C2CCC(=O)NC2=O)C3=O)cnn1C (stereo not shown) [Example 451] | E (E = >25-75% remaining) | ≥ 25 nM | ≥ 25 nM | F (F = >75-100% remaining)
5 | Cc1oncc1-c1c(-c2ccc3c(c2)CN(C2CCC(=O)NC2=O)C3=O)cnn1C (stereo not shown) [Example 452] | E (E = >25-75% remaining) | < 25 nM | ≥ 25 nM | F (F = >75-100% remaining)
6 | Cn1ncc(-c2ccc3c(c2)CN(C2CCC(=O)NC2=O)C3=O)c1-c1cccnc1N (stereo not shown) [Example 453] | E (E = >25-75% remaining) | < 25 nM | ≥ 25 nM | F (F = >75-100% remaining)
7 | Cc1cc(-c2c(-c3ccc4c(c3)CN(C3CCC(=O)NC3=O)C4=O)cnn2C)n(C)n1 (stereo not shown) [Example 454] | F (F = >75-100% remaining) | ≥ 25 nM | ≥ 25 nM | F (F = >75-100% remaining)
8 | Cn1ncc(-c2ccc3c(c2)CN(C2CCC(=O)NC2=O)C3=O)c1-c1cccc(C#N)n1 (stereo not shown) [Example 455] | E (E = >25-75% remaining) | ≥ 25 nM | ≥ 25 nM | F (F = >75-100% remaining)
9 | COc1cncc(-c2c(-c3ccc4c(c3)CN(C3CCC(=O)NC3=O)C4=O)cnn2C)c1 (stereo not shown) [Example 456] | E (E = >25-75% remaining) | ≥ 25 nM | ≥ 25 nM | F (F = >75-100% remaining)
10 | Cn1ncc(-c2ccc3c(c2)CN(C2CCC(=O)NC2=O)C3=O)c1-c1ccn(C)c(=O)c1 (stereo not shown) [Example 457] | E (E = >25-75% remaining) | ≥ 25 nM | ≥ 25 nM | F (F = >75-100% remaining)
11 | COc1ccncc1-c1c(-c2ccc3c(c2)CN(C2CCC(=O)NC2=O)C3=O)cnn1C (stereo not shown) [Example 458] | F (F = >75-100% remaining) | < 25 nM | < 25 nM | F (F = >75-100% remaining)
12 | Cn1ncc(-c2ccc3c(c2)CN(C2CCC(=O)NC2=O)C3=O)c1-c1ccc(=O)n(C)c1 (stereo not shown) [Example 459] | E (E = >25-75% remaining) | < 25 nM | ≥ 25 nM | F (F = >75-100% remaining)
13 | Cn1ncc(-c2ccc3c(c2)CN(C2CCC(=O)NC2=O)C3=O)c1-c1ccc2nc[nH]c2c1 (stereo not shown) [Example 460] | D (D = >10- 25% remaining) | ≥ 25 nM | ≥ 25 nM | F (F = >75-100% remaining)
14 | Cn1ncc(-c2ccc3c(c2)CN(C2CCC(=O)NC2=O)C3=O)c1-c1ccc2cncn2c1 (stereo not shown) [Example 461] | C (C = 0-10% remaining) | ≥ 25 nM | ≥ 25 nM | F (F = >75-100% remaining)
15 | Cn1ncc(-c2ccc3c(c2)CN(C2CCC(=O)NC2=O)C3=O)c1-c1ccc2nccnc2c1 (stereo not shown) [Example 462] | E (E = >25-75% remaining) | ≥ 25 nM | ≥ 25 nM | F (F = >75-100% remaining)
16 | Cn1ncc(-c2ccc3c(c2)CN(C2CCC(=O)NC2=O)C3=O)c1-c1ccc2ncn(C)c2c1 (stereo not shown) [Example 463] | D (D = >10- 25% remaining) | ≥ 25 nM | ≥ 25 nM | F (F = >75-100% remaining)
17 | Cn1ncc(-c2ccc3c(c2)CN(C2CCC(=O)NC2=O)C3=O)c1-c1cnn(Cc2cccnc2)c1 (stereo not shown) [Example 464] | F (F = >75-100% remaining) | ≥ 25 nM | ≥ 25 nM | F (F = >75-100% remaining)
18 | Cn1ncc(-c2ccc3c(c2)CN(C2CCC(=O)NC2=O)C3=O)c1-c1ccc(N2CCCCC2)nc1 (stereo not shown) [Example 465] | E (E = >25-75% remaining) | ≥ 25 nM | ≥ 25 nM | F (F = >75-100% remaining)
19 | Cn1ncc(-c2ccc3c(c2)CN(C2CCC(=O)NC2=O)C3=O)c1-c1ccc(N2CCOCC2)nc1 (stereo not shown) [Example 466] | F (F = >75-100% remaining) | < 25 nM | ≥ 25 nM | F (F = >75-100% remaining)

Row | SMILES | CK1α Ymin (CK1α) | DC50 (CK1α) | DC50 (GSPT1) | GSPT1 Ymin (GSPT1)
20 | Cn1ncc(-c2ccc3c(c2)CN(C2CCC(=O)NC2=O)C3=O)c1-c1cncc(OCc2ccccc2)c1 (stereo not shown) [Example 467] | F (F = >75-100% remaining) | ≥ 25 nM | ≥ 25 nM | –
21 | Cn1ncc(-c2ccc3c(c2)CN(C2CCC(=O)NC2=O)C3=O)c1-c1cn[nH]c1 (stereo not shown) [Example 468] | E (E = >25-75% remaining) | ≥ 25 nM | ≥ 25 nM | F (F = >75-100% remaining)
22 | Cn1ncc(-c2ccc3c(c2)CN(C2CCC(=O)NC2=O)C3=O)c1-c1cc[nH]n1 (stereo not shown) [Example 469] | D (D = >10- 25% remaining) | ≥ 25 nM | ≥ 25 nM | F (F = >75-100% remaining)
23 | Cn1ccc(-c2c(-c3ccc4c(c3)CN(C3CCC(=O)NC3=O)C4=O)cnn2C)n1 (stereo not shown) [Example 470] | E (E = >25-75% remaining) | ≥ 25 nM | ≥ 25 nM | F (F = >75-100% remaining)
24 | Cn1ncc(-c2ccc3c(c2)CN(C2CCC(=O)NC2=O)C3=O)c1-c1cccs1 (stereo not shown) [Example 471] | C (C = 0-10% remaining) | < 25 nM | ≥ 25 nM | F (F = >75-100% remaining)
25 | Cc1ncccc1-c1c(-c2ccc3c(c2)CN(C2CCC(=O)NC2=O)C3=O)cnn1C (stereo not shown) [Example 472] | E (E = >25-75% remaining) | < 25 nM | ≥ 25 nM | F (F = >75-100% remaining)
26 | COc1ccsc1-c1c(-c2ccc3c(c2)CN(C2CCC(=O)NC2=O)C3=O)cnn1C (stereo not shown) [Example 473] | E (E = >25-75% remaining) | < 25 nM | ≥ 25 nM | F (F = >75-100% remaining)
27 | Cn1ncc(-c2ccc3c(c2)CN(C2CCC(=O)NC2=O)C3=O)c1-c1c[nH]c2ccccc12 (stereo not shown) [Example 474] | D (D = >10- 25% remaining) | < 25 nM | ≥ 25 nM | F (F = >75-100% remaining)
28 | Cn1ncc(-c2ccc3c(c2)CN(C2CCC(=O)NC2=O)C3=O)c1-c1cnn(C2CCC2)c1 (stereo not shown) [Example 475] | E (E = >25-75% remaining) | ≥ 25 nM | < 25 nM | F (F = >75-100% remaining)
29 | Cn1ncc(-c2ccc3c(c2)CN(C2CCC(=O)NC2=O)C3=O)c1-c1ccc2c(c1)ncn2C (stereo not shown) [Example 476] | D (D = >10- 25% remaining) | ≥ 25 nM | ≥ 25 nM | F (F = >75-100% remaining)
30 | Cn1ncc(-c2ccc3c(c2)CN(C2CCC(=O)NC2=O)C3=O)c1-c1ccc2c(c1)CCCO2 (stereo not shown) [Example 477] | C (C = 0-10% remaining) | < 25 nM | ≥ 25 nM | F (F = >75-100% remaining)
31 | Cn1ncc(-c2ccc3c(c2)CN(C2CCC(=O)NC2=O)C3=O)c1-c1ccc2sccc2c1 (stereo not shown) [Example 478] | D (D = >10- 25% remaining) | < 25 nM | ≥ 25 nM | F (F = >75-100% remaining)
32 | Cn1ncc(-c2ccc3c(c2)CN(C2CCC(=O)NC2=O)C3=O)c1-c1cccc(-n2cccn2)c1 (stereo not shown) [Example 479] | E (E = >25-75% remaining) | < 25 nM | ≥ 25 nM | F (F = >75-100% remaining)
33 | Cn1ncc(-c2ccc3c(c2)CN(C2CCC(=O)NC2=O)C3=O)c1-c1cnn(Cc2ccccc2)c1 (stereo not shown) [Example 480] | E (E = >25-75% remaining) | ≥ 25 nM | ≥ 25 nM | F (F = >75-100% remaining)
34 | Cc1c(-c2c(-c3ccc4c(c3)CN(C3CCC(=O)NC3=O)C4=O)cnn2C)cnn1-c1ccccc1 (stereo not shown) [Example 481] | E (E = >25-75% remaining) | ≥ 25 nM | < 25 nM | F (F = >75-100% remaining)
35 | Cn1cnc(-c2ccc3c(c2)CN(C2CCC(=O)NC2=O)C3=O)c1-c1cccnc1 (stereo not shown) [Example 482] | D (D = >10- 25% remaining) | < 25 nM | < 25 nM | E (E = >25-75% remaining)
36 | Cc1occc1-c1c(-c2ccc3c(c2)CN(C2CCC(=O)NC2=O)C3=O)ncn1C (stereo not shown) [Example 483] | D (D = >10- 25% remaining) | < 25 nM | < 25 nM | F (F = >75-100% remaining)
37 | Cn1cnc(-c2ccc3c(c2)CN(C2CCC(=O)NC2=O)C3=O)c1-c1cnc(N)nc1 (stereo not shown) [Example 485] | E (E = >25-75% remaining) | ≥ 25 nM | ≥ 25 nM | F (F = >75-100% remaining)
38 | COc1cncc(-c2c(-c3ccc4c(c3)CN(C3CCC(=O)NC3=O)C4=O)ncn2C)c1 (stereo not shown) [Example 486] | D (D = >10- 25% remaining) | < 25 nM | < 25 nM | F (F = >75-100% remaining)
